Assay results published in patent US20220290140A1, “TRANS-CYCLOOCTENE LABELED ANTISENSE OLIGONUCLEOTIDES, RADIO LABELED TETRAZINE AND METHODS” (Biogen MA Inc., priority 2019, published 2022).
Like-named read-outs stand apart in the source and are kept apart here.

Legend:
[1] = Plasma protein binding (PPB); format: in vitro ADME; conditions: rat, read-out: PPB (rat) unbound
Text: (§1) As pretargeting is a 2-component system, an ^18F-Tz was developed to be CNS-penetrant based on cnsPET-MPO modeling (Zhang, L., et al. (2018). J Med Chem 61(8): 3296-3308).

[2] = Static PET/CT of spine in NHP, spinal cord ROI with muscle as reference; format: in vivo; conditions: cynomolgus monkey, 24 h post-ASO scan
Method: (§2) Dynamic PET scans (0-120 min) with arterial input function were performed on a female cynomolgous monkey using ^18F-537-Tz (5.7±0.7 mCi, 0.14±0.12 μg) in order to evaluate the tracer's efficacy in non-human primates. Parent fraction of tracer in arterial plasma was determined by extracting tracer using acetonitrile and analysis by radioHPLC. Baseline scans were performed first, measuring tracer kinetics in the brain. Malat1 ASO-TCO (20 mg in 2.4 mL aCSF) was then injected intrathecally under fluoroscopic guidance and ^18F-537-Tz PET/CT imaging performed at 24 h and 168 h under isoflurane anesthesia. Imaging data were co-registered to a cyno brain atlas, and TAC in subregions of interest were derived from them. Static PET/CT scans were acquired in each imaging session, with the field of view (FOV) oriented to capture the spine. This scan took place 130-160 min p.i. of tracer, and an ROI drawn over the spinal cord with muscle as a reference region.

[3] = Pretargeted PET/CT imaging, ASO-TCO i.t. then 18F-Tz i.v.; format: in vivo, Sprague-Dawley rats
Method: Sprague-Dawley rats were administered ASO-TCO intrathecally (2.5 mM in 30 μL saline). After either 24 hours (center) or 168 hours (right), those rats were then injected I.V. with ^18F-537-Tz (22-30 MBq; […]; 0.2 nmol). Rats were imaged by PET-CT from 75-90 min. post-injection of radiotracer. Control rats (left) received saline only.
FIG. 5 is a bar graph showing Regions of Interest (ROI) drawn from the PET data. Ratios were obtained of % ID/g in tissue of interest (brain and spine) to the reference region (heart). […] Lanes in bar graph depicted from left to right: ASO-TCO (brain:heart); Naive (brain:heart); ASO-TCO (spine:heart); and Naive (spine:heart).
Rats were administered Malat1 ASO-TCO intrathecally (I.T.) and 24 hours later were given ^18F-Tz intravenously (I.V.). They were then imaged 75-90 p.i. by PET/CT.
The same uptake is not seen in rats that received only the ^18F-Tz radiotracer.

[4] = design: species or system mice; conditions: mouse, in vivo, 10 min
Text: as §1

[5] = Dynamic PET/CT of brain in NHP, baseline and post Malat1 ASO-TCO; format: in vivo; conditions: cynomolgus monkey
Method: The pretargeting PET tracer ^18F-537-Tz was tested in a cynomolgus monkey, including baseline scans and a homologous blocking scan. The monkey was then dosed with Malat1 ASO-TCO and scanned again at 24 h and 168 h.
as §2

[6] = rat, in vivo, 1 mg/kg
Method: (§3) Dynamic PET scans were performed with arterial sampling to determine parent fraction of the tracer ^18F-537-Tz in baseline and pretargeted scans. Baseline imaging with a comparison to a homologous block with non-radioactive compound ^19F-537-Tz at 1 mg/kg was performed on a single rat, where non-radioactive compound was administered i.v. 5 min before injection of tracer. Next, three additional rats were imaged at baseline with no ASO-TCO administered. A final three rats received pretargeted scans and were dosed intrathecally with 0.56 mg Malat1 ASO-TCO in 30 μL saline followed by a 40 μL saline flush. 24 h after injection of the ASO, ^18F-537-Tz was injected intravenously and dynamic PET imaging performed.
A metabolite analysis method was developed to enable the tracer kinetic modelling using metabolite corrected plasma activity as an input function. The plasma radioactivity extraction efficiency for all samples was determined and was satisfactory using 1:1 plasma:ACN. The recovery from the HPLC column of the injected radioactivity was determined for each plasma extract injected. Good recovery of the injected radioactivity from the HPLC column was obtained for each plasma extract injection. For the 3 baseline scans, the parent compound fraction of the total activity found in plasma was 86-90% at 5 min, and this fraction decreased to 66-74% at 60 min after ^18F-537-Tz injection. […]

[7] = Brain protein binding (BPB); format: in vitro ADME
Text: as §1

[8] = Static PET/CT of upper spine and CSF; format: in vivo, rat
Text: The static PET/CT images of ^18F-537-Tz uptake in the upper rat spine are illustrated in FIG. 12. […] There was a 10% and 15% increase in the radioactivity uptake in the spine and CSF when comparing the baseline and post ASO-TCO dosed rats (Table 4).

Microsome stability = format: in vitro ADME; conditions: microsomes; read-out: Microsome Stability t1/2
BCRP = biological target: T1, BCRP (Homo sapiens, UniProt Q9UNQ0); experiment: in vitro; format: in vitro ADME; conditions: dog
T1 construct: expressed in transfected cells; host or cells: MDCK (canine kidney) cells expressing BCRP
T1 sequence (Q9UNQ0 1-655): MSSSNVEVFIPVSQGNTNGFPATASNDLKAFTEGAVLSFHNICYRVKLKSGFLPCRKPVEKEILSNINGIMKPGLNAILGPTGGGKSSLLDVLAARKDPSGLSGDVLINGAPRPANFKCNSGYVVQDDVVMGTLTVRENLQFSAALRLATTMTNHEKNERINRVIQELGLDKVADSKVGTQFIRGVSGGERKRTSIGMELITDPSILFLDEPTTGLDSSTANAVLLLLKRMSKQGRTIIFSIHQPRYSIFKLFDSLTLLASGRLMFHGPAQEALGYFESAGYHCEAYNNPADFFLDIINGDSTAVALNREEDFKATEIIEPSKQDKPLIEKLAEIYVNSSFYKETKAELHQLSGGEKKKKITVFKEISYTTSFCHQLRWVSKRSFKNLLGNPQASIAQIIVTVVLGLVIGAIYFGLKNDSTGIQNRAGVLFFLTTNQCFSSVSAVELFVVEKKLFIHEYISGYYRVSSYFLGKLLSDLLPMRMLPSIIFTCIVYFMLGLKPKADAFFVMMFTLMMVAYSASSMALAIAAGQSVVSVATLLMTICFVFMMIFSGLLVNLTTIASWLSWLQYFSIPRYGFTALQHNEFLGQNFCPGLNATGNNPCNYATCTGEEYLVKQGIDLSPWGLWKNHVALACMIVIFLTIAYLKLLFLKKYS
Text: as §1

[9] = Parent fraction and blood kinetics of tracer in arterial plasma in NHP; format: in vivo, cynomolgus monkey
Method: as §2

[10] = Dynamic PET scans of brain, baseline, homologous block and pretargeted; format: in vivo, rat
Method: as §3
Time-activity-curves (TAC) from 0 to 60 min showing the brain subregion distribution of ^18F-537-Tz in rat 2 at baseline and following iv administration of 1 mg/kg of unlabeled […] are illustrated in FIG. 9. […] The average brain regional SUV from 40-60 min of the scans were similar in the baseline and homologous block scans (Table 1).
PET/CT images with summed radioactivity from 0 to 60 min showing the brain distribution of ^18F-537-Tz in the 4 rats scanned at baseline and the 3 rats scanned 24 h after i.t. administration of ASO-TCO are illustrated in FIG. 10. There was an increase in brain uptake of radioactivity observed in all the ASO-TCO dosed rats. There was an increase of ca. […]

[11] = rats treated with ASO-TCO vs control rats that received only tracer, P<0.005
[12] = baseline vs post ASO-TCO dosed rats
[13] = rats, Baseline group, ca. 70-80 min after tracer injection
[14] = rat Subject 2, Baseline scan, 40-60 min p.i. of tracer
[15] = rat Subject 2, Postdose (homologous block, 1 mg/kg non-radioactive compound i.v. 5 min before tracer), 40-60 min p.i.
[16] = rats, Baseline group (no ASO-TCO), 40-60 min p.i. of tracer
[17] = rats, Baseline group, 40-60 min p.i. of tracer
[18] = rats, Pretargeted group (0.56 mg Malat1 ASO-TCO i.t. 24 h before tracer), 40-60 min p.i.
[19] = rats, Pretargeted group (Malat1 ASO-TCO i.t. 24 h before tracer), 40-60 min p.i.
[20] = rats, Pretargeted vs Baseline, 40-60 min p.i.

O=C(Cc1ccc(-c2nncnn2)cc1)NCC[18F] [Compound 1]
fraction unbound [1]: 0.375 | spinal cord SUV normalized to muscle, higher signal than baseline scan [2]: ~25% | uptake of tracer in brain and spinal cord (PET/CT images) ([3]; rats given Malat1 ASO-TCO I.T. 24 hours before tracer I.V., imaged 75-90 p.i.): specific uptake | Brain-to-heart ratio from ROIs [3, 11]: significantly higher | spine-to-heart ratio from ROIs [3, 11]: significantly higher | brain uptake [4]: 1.7±0.9 % ID | uptake of the tracer in the brain, baseline PET/CT ([5]; 2-hour scan): good uptake | SUV uptake, baseline vs post-ASO scans (whole brain ROI) ([5]; 24 h and 7 days after Malat1 ASO-TCO i.t.): No significant different | difference in SUV between baseline and pretargeted scans in the brain ([5]; normalized TACs, final timepoint): ~10% | parent compound fraction of total activity in plasma ([6]; 5 min): 82% | parent compound fraction of total activity in plasma ([6]; 60 min): 62% | BPB (rat) unbound [7]: 51% | increase in radioactivity uptake in the CSF [8, 12]: 15% | increase in radioactivity uptake in the spine [8, 12]: 10% | Radioactivity uptake CSF [8, 13]: 1.18 | Radioactivity uptake Spine [8, 13]: 0.95 | Radioactivity uptake Spine ([8]; rats, Pretargeted group (i.t. dosing of ASO-TCO), ca. 70-80 min after tracer injection): 1.04 | % Change of radioactivity uptake CSF ([8]; rats, Pretargeted vs Baseline): 16% | % Change of radioactivity uptake Spine ([8]; rats, Pretargeted vs Baseline): 9% | half-life (Microsome stability): 84 min | efflux ratio (BCRP): 0.51 | Parent fraction, tracer intact ([9]; cynomolgus monkey arterial plasma, over the course of imaging): > 80% | Blood kinetics of the tracer ([9]; cynomolgus monkey, over 30 min): uptake and rapid clearance | SUV Plasma (40-60 min) ([10]; rat Subject 2, Baseline scan): 1.12 | SUV Brain [10, 14]: 1.29 | SUV Cerebellum [10, 14]: 1.38 | SUV Cortex [10, 14]: 1.07 | SUV Frontal Cortex [10, 14]: 1.16 | SUV Hippocampus [10, 14]: 1.28 | SUV Hypothalamus [10, 14]: 1.45 | SUV Thalamus [10, 14]: 1.46 | SUV Plasma (40-60 min) ([10]; rat Subject 2, Postdose (homologous block, 1 mg/kg non-radioactive compound i.v. 5 min before tracer)): 1.45 | SUV Brain [10, 15]: 1.22 | SUV Cerebellum [10, 15]: 1.38 | SUV Cortex [10, 15]: 1.10 | SUV Frontal Cortex [10, 15]: 1.24 | SUV Striatum [10, 15]: 1.40 | SUV Thalamus [10, 15]: 1.52 | SUV Hippocampus ([10]; rat, in vivo): 1.43 | SUV Striatum ([10]; rat, in vivo): 1.42 | SUV Hippocampus ([10]; rat, in vivo, iv, 1 mg/kg): 1.27 | SUV Hypothalamus ([10]; rat, in vivo, iv, 1 mg/kg): 1.43 | SUV Cerebellum [10, 16]: 1.52 | SUV Cortex [10, 16]: 1.25 | SUV Frontal Cortex [10, 16]: 1.33 | SUV Hypothalamus [10, 16]: 1.62 | SUV Plasma [10, 16]: 1.22 | SUV Striatum [10, 16]: 1.52 | SUV Thalamus [10, 16]: 1.64 | SUV Whole Brain [10, 16]: 1.45 | SUV normalized to plasma, Cerebellum [10, 17]: 1.27 | SUV normalized to plasma, Cortex [10, 17]: 1.05 | SUV normalized to plasma, Frontal Cortex [10, 17]: 1.11 | SUV normalized to plasma, Hippocampus [10, 17]: 1.2 | SUV normalized to plasma, Hypothalamus [10, 17]: 1.36 | SUV normalized to plasma, Striatum [10, 17]: 1.27 | SUV normalized to plasma, Thalamus [10, 17]: 1.37 | SUV normalized to plasma, Whole Brain [10, 17]: 1.21 | SUV Cerebellum [10, 18]: 1.9 | SUV Cortex [10, 18]: 1.66 | SUV Frontal Cortex [10, 18]: 1.66 | SUV Hippocampus [10, 18]: 1.85 | SUV Hypothalamus [10, 18]: 1.89 | SUV Plasma [10, 18]: 1.18 | SUV Striatum [10, 18]: 1.77 | SUV Thalamus [10, 18]: 1.95 | SUV Whole Brain [10, 18]: 1.79 | SUV normalized to plasma, Cerebellum [10, 19]: 1.67 | SUV normalized to plasma, Cortex [10, 19]: 1.42 | SUV normalized to plasma, Frontal Cortex [10, 19]: 1.43 | SUV normalized to plasma, Hippocampus [10, 19]: 1.61 | SUV normalized to plasma, Hypothalamus [10, 19]: 1.63 | SUV normalized to plasma, Striatum [10, 19]: 1.47 | SUV normalized to plasma, Thalamus [10, 19]: 1.61 | SUV normalized to plasma, Whole Brain [10, 19]: 1.53 | % Change of SUV normalized to plasma, Cerebellum ([10]; rats, Pretargeted vs Baseline): 31% | % Change of SUV normalized to plasma, Cortex ([10]; rats, Pretargeted vs Baseline): 35% | % Change of SUV normalized to plasma, Frontal Cortex ([10]; rats, Pretargeted vs Baseline): 29% | % Change of SUV normalized to plasma, Hippocampus ([10]; rats, Pretargeted vs Baseline): 34% | % Change of SUV normalized to plasma, Hypothalamus ([10]; rats, Pretargeted vs Baseline): 20% | % Change of SUV normalized to plasma, Striatum ([10]; rats, Pretargeted vs Baseline): 16% | % Change of SUV normalized to plasma, Thalamus ([10]; rats, Pretargeted vs Baseline): 18% | % Change of SUV normalized to plasma, Whole Brain ([10]; rats, Pretargeted vs Baseline): 26% | % Change of SUV Cerebellum [10, 20]: 25% | % Change of SUV Cortex [10, 20]: 33% | % Change of SUV Frontal Cortex [10, 20]: 25% | % Change of SUV Hippocampus [10, 20]: 29% | % Change of SUV Hypothalamus [10, 20]: 17% | % Change of SUV Striatum [10, 20]: 16% | % Change of SUV Thalamus [10, 20]: 19% | % Change of SUV Whole Brain [10, 20]: 23% | brain entry of tracer ([10]; rats, highest uptake in thalamus/hypothalamus, lowest in cortical regions): readily entered the brain
